Test results reported in patent publication US20210395210A1, “INHIBITION OF BACTERIAL CHAPERONIN SYSTEMS” (THE TRUSTEES OF INDIANA UNIVERSITY, priority 2018, published 2021).
Where two headings read alike, the source gives them in different places.

Columns and labels:
[1] = biological target: T1, E. coli GroEL/ES (Escherichia coli, UniProt P0A6F5); experiment: GroEL/ES-mediated dRho refolding assay; format: biochemical
T1 construct: made in house; host or cells: GroEL in E. coli DH5α; GroES in E. coli BL21 (DE3)
T1 sequence (P0A6F5 2-548): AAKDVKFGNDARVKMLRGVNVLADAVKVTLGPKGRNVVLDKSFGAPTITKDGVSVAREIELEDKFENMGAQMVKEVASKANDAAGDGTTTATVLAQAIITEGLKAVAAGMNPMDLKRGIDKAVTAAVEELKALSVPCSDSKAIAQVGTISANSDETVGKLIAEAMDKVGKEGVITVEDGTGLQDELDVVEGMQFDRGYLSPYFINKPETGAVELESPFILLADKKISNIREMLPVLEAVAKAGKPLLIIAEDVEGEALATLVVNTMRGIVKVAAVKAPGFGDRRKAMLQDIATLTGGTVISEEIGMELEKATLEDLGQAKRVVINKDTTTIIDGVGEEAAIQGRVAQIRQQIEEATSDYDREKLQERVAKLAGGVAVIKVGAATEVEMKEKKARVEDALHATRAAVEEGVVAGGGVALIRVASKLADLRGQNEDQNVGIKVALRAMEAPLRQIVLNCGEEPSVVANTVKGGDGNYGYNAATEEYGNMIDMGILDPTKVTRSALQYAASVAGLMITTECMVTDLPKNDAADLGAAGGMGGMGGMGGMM
Method: Reagent preparation: For this assay, five primary reagent stocks were prepared: 1) GroEUES-dRho binary complex stock; 2) ATP initiation stock; 3) thiocyanate enzymatic assay stock; 4) formaldehyde quench stock; 5) ferric nitrate reporter stock. Denatured rhodanese (dRho) was prepared by 3-fold dilution of rhodanese (Roche product #R1756, diluted to 10 mg/mL with H2O) with denaturant buffer (12 M Urea, 50 mM Tris-HCl, pH 7.4, and 10 mM DTT). Rhodanese was completely denatured by incubating at room temperature for 45 min. The binary complex solution was prepared by slowly adding the dRho stock to a stirring stock of concentrated GroEL in modified folding buffer (50 mM Tris-HCl, pH 7.4, 50 mM KCl, 10 mM MgCl2, 5 mM Na2S2O3, and 1 mM DTT). The solution was centrifuged at 16,000×g for 5 minutes, and the supernatant was collected and added to a solution of GroES in modified folding buffer to give final protein concentrations of 100 nM GroEL, 120 nM GroES, and 80 nM dRho. The binary complex stock was prepared immediately prior to use. For the ATP initiation stock, ATP solid was diluted into modified folding buffer to a final concentration of 2.0 mM. The thiocyanate enzymatic assay stock was prepared to contain 70 mM KH2PO4, 80 mM KCN, and 80 mM Na2S2O3 in water. The formaldehyde quench solution contained 30% formaldehyde in water. The ferric nitrate reporter stock contained 8.5% w/v Fe(NO3)3 and 11.3% v/v HNO3 in water.
Assay Protocol: First, 10 μL aliquots of the GroEL/ES-dRho complex stock were dispensed into clear, 384-well polystyrene plates. […] The chaperonin-mediated refolding cycle was initiated by addition of 10 μL of ATP stock (reagent concentrations during refolding cycle: 50 nM GroEL, 60 nM GroES, 40 nM dRho, 1 mM ATP, and compounds of 250 μM to 114 nM, 3-fold dilution series). After incubating for 45 minutes at 37° C. for the refolding cycle, 30 μL of the thiocyanate enzymatic assay stock was added and incubated for 60 min at R.T. for the refolded rhodenase enzymatic reporter reaction. The reporter reaction was quenched by adding 10 μL of the formaldehyde quench stock, and then 40 μL of the ferric nitrate reporter stock was added to quantify the amount of thiocyanate produced during the enzymatic reporter reaction, which is proportional to the amount of dRho refolded by GroEL/ES. After incubating at R.T. for 15 min, the absorbance by Fe(SCN)3 was measured at 460 nm using a Molecular Devices SpectraMax Plus384 microplate reader. A second set of baseline control plates were prepared analogously, but without GroEL/ES-dRho protein binary solution, to correct for possible interference from compound absorbance or turbidity. […] Results presented represent the averages of IC50 values obtained from at least quadriplicate (duplicate of duplicate) replicates.
After generating the compound library, we next employed a series of well-established biochemical assays to evaluate compound inhibitory effects against the GroEUES chaperonin system (See FIG. 6 and FIG. 7). We used E. coli GroEUES as the surrogate chaperonin system for refolding of the reporter enzymes malate dehydrogenase (MDH) and rhodanese (Rho). Briefly, binary complexes are formed between GroEL and denatured MDH or Rho, which are then refolded to their native states upon addition of ATP and the GroES co-chaperonin. Enzymatic activities of refolded native MDH or Rho act as coupled reporters of GroEUES refolding functions since in the presence of chaperonin inhibitors, no functional reporter enzymes are generated.

[2] = biological target: T2, native Rho (rhodanese) (Bos taurus, UniProt P00586); experiment: Counter-screen for inhibition of native rhodanese enzymatic activity; format: biochemical; conditions: for log(IC50) Native Rho Reporter: log of IC50 (μM scale), with standard deviation; for inhibition of native Rho enzymatic activity (in words): false-positive counter-screen
T2 construct: purchased Roche (so in the source) R1756
T2 sequence (P00586 1-297): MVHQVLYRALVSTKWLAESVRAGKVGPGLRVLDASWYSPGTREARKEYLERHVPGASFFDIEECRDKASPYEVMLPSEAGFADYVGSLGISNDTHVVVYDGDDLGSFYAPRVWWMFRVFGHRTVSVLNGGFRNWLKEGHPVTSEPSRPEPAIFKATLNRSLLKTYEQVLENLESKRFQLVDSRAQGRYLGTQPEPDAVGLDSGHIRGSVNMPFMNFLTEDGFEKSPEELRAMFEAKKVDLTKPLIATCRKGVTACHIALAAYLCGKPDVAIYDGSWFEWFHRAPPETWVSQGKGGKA
Method: Reagent Preparations & Assay Protocol: Reagents were identical to those used in the GroEUES-dRho refolding assay described above; however, the assay protocol differed in the sequence of compound addition to the wells. Compounds were pin-transferred after the 60 minute incubation for the refolding cycle, but prior to the addition of the thiocyanate enzymatic assay stock. Thus, the refolding reactions were allowed to proceed for 60 min at 37° C. in the absence of test compounds, but the enzymatic activity of the refolded rhodanese reporter enzyme was monitored in the presence of test compounds (inhibitor concentration range during the enzymatic reporter reaction is 100 µM to 46 nM-3-fold dilutions). IC50 values for the rhodenase reporter enzyme were determined as described above. Results presented represent the averages of IC50 values obtained from at least quadriplicate (duplicate of duplicate) replicates.

[3] = in vitro; conditions: human
Method: HEK 293 cells were maintained in MEM medium (Corning Cellgro, 10-009 CV) supplemented with 10% FBS (Sigma, F2242). […] Cells at 80% confluence were harvested and diluted in growth medium, then 45 μL of the THLE-3 cells (1,500 cells/well) or HEK 293 cells (1,500 cells/well) were dispensed per well, and plates were sealed with “Breathe Easy” oxygen permeable membranes (Diversified Biotech) and incubated at 37° C., 5% CO2, for 24 h.

[4] = read-out: Biochemical Assay IC50 Native Rho Reporter
[5] = log of IC50 (μM scale), with standard deviation, read-out: log(IC50) GroEL/ES-dRho Refolding (converted)
[6] = read-out: Biochemical Assay IC50 GroEL/ES-dRho Refolding
[7] = log of IC50 (μM scale), with standard deviation

Structure (SMILES) | IC50 [1] | IC50 [2, 4] | CC50 at 48 h [3] | IC50 [1, 5] | IC50 [1, 6] | log(IC50) GroEL/ES-dRho Refolding [1, 7] | log(IC50) Native Rho Reporter [2] | IC50 [2] | inhibition of native Rho enzymatic activity (in words) [2]
O=C(Nc1ccc(Sc2nc3ccccc3s2)c(Cl)c1)c1cccc(Br)c1 [Compound 18, N-(4-(Benzo[d]thiazol-2-ylthio)-3-chlorophenyl)-3-bromobenzamide] | > 100 µM | > 100 µM | > 100 µM | – | – | – | – | – | –
CO[C@H]1/C=C/O[C@@]2(C)Oc3c(C)c(O)c4c(O)c(c(/C=N/N5CCN(C)CC5)c(O)c4c3C2=O)NC(=O)/C(C)=C\C=C\[C@H](C)[C@H](O)[C@@H](C)[C@@H](O)[C@@H](C)[C@H](OC(C)=O)[C@@H]1C [Rifampicin, rifampicin, reference compound] | – | – | > 100 µM | – | – | – | – | – | –
O=C(Nc1ccc(Sc2nc3ccccc3s2)c(Cl)c1)c1cc(Br)cc(Br)c1O [Compound 1, N-(4-(Benzo[d]thiazol-2-ylthio)-3-chlorophenyl)-3,5-dibromo-2-hydroxybenzamide] | – | > 100 µM | – | 1.55 µM | 1.5 µM | – | – | – | –
O=C(Nc1ccccc1)c1cc(Br)cc(Br)c1O [Compound 13, 3,5-Dibromo-2-hydroxy-N-phenylbenzamide] | > 100 µM | > 100 µM | 33.9 µM | – | – | >2 | >2 | – | –
O=C(Nc1ccc(Oc2ccc(Cl)cc2)c(Cl)c1)c1cc(I)cc(I)c1O [Rafoxanide, rafoxanide, reference compound] | – | – | > 100 µM | – | 2.2 µM | 0.34 ± 0.11 | >2 | > 100 µM | –
COc1ccc(Br)cc1C(=O)Nc1cccc(Cl)c1 [Compound 39, 5-Bromo-N-(3-chlorophenyl)-2-methoxybenzamide] | > 100 µM | > 100 µM | > 100 µM | – | – | >2 | >2 | – | –
O=C(Nc1ccccc1)c1cccc(Br)c1O [Compound 14, 3-Bromo-2-hydroxy-N-phenylbenzamide] | > 100 µM | > 100 µM | – | – | – | >2 | >2 | – | –
O=C(Nc1ccc(Sc2nc3ccccc3s2)c(Cl)c1)c1cc(Br)ccc1O [Compound 3, N-(4-(Benzo[d]thiazol-2-ylthio)-3-chlorophenyl)-5-bromo-2-hydroxybenzamide] | – | > 100 µM | – | – | 11 µM | 1.04 ± 0.38 | – | – | inactive against the reporter enzymes
O=C(Nc1ccc(Sc2nc3ccccc3s2)cc1)c1cc(Br)ccc1O [Compound 7, N-(4-(Benzo[d]thiazol-2-ylthio)phenyl)-5-bromo-2-hydroxybenzamide] | – | > 100 µM | – | – | 30 µM | 1.48 ± 0.11 | – | – | inactive against the reporter enzymes
O=C(Nc1cccc(Cl)c1)c1cc(Br)cc(Br)c1 [Compound 23, 3,5-Dibromo-N-(3-chlorophenyl)benzamide] | > 100 µM | > 100 µM | – | – | – | >2 | >2 | – | –
COc1c(Br)cccc1C(=O)Nc1ccc(Sc2nc3ccccc3s2)cc1 [Compound 34, N-(4-(Benzo[d]thiazol-2-ylthio)phenyl)-3-bromo-2-methoxybenzamide] | – | – | > 100 µM | – | – | – | – | – | –
O=C(Nc1cccc(Cl)c1)c1cc(Br)ccc1O [Compound 11, 5-Bromo-N-(3-chlorophenyl)-2-hydroxybenzamide] | > 100 µM | > 100 µM | – | – | – | >2 | >2 | – | –
O=C(Nc1ccc(Sc2nc3ccccc3s2)c(Cl)c1)c1cccc(Br)c1O [Compound 2, N-(4-(Benzo[d]thiazol-2-ylthio)-3-chlorophenyl)-3-bromo-2-hydroxybenzamide] | – | – | – | – | 3.8 µM | 0.58 ± 0.15 | – | – | inactive against the reporter enzymes
O=C(Nc1ccccc1)c1cc(Br)ccc1O [Compound 15, 5-Bromo-2-hydroxy-N-phenylbenzamide] | > 100 µM | > 100 µM | – | – | – | >2 | >2 | – | –
O=C(Nc1ccc(Sc2nc3ccccc3s2)cc1)c1cc(Br)cc(Br)c1O [Compound 5, N-(4-(Benzo[d]thiazol-2-ylthio)phenyl)-3,5-dibromo-2-hydroxybenzamide] | – | – | – | 1.32 µM | 1.3 µM | – | – | – | –
O=C(Nc1ccc(Sc2nc3ccccc3s2)cc1)c1cccc(Br)c1 [Compound 21, N-(4-(Benzo[d]thiazol-2-ylthio)phenyl)-3-bromobenzamide] | > 100 µM | > 100 µM | – | – | – | – | – | – | –
O=C(Nc1ccc(Sc2nc3ccccc3s2)cc1)c1ccccc1O [Compound 8, N-(4-(Benzo[d]thiazol-2-ylthio)phenyl)-2-hydroxybenzamide] | – | > 100 µM | – | – | 87 µM | 1.94 ± 0.23 | – | – | –
O=C(Nc1ccc(Sc2nc3ccccc3s2)c(Cl)c1)c1ccccc1 [Compound 19, N-(4-(Benzo[d]thiazol-2-ylthio)-3-chlorophenyl)benzamide] | > 100 µM | > 100 µM | – | – | – | – | – | – | –
O=C(Nc1ccc(Sc2nc3ccccc3s2)c(Cl)c1)c1ccccc1O [Compound 4, N-(4-(Benzo[d]thiazol-2-ylthio)-3-chlorophenyl)-2-hydroxybenzamide] | – | > 100 µM | – | – | 63 µM | 1.80 ± 0.27 | – | – | –
O=C(Nc1cccc(Cl)c1)c1ccccc1O [Compound 12, N-(3-Chlorophenyl)-2-hydroxybenzamide] | > 100 µM | > 100 µM | – | – | – | >2 | >2 | – | –
O=C(Nc1ccc(Sc2nc3ccccc3s2)cc1)c1cccc(Br)c1O [Compound 6, N-(4-(Benzo[d]thiazol-2-ylthio)phenyl)-3-bromo-2-hydroxybenzamide] | – | – | – | 13.8 µM | 14 µM | – | – | – | inactive against the reporter enzymes
COc1c(Br)cccc1C(=O)Nc1ccc(Sc2nc3ccccc3s2)c(Cl)c1 [Compound 30, N-(4-(Benzo[d]thiazol-2-ylthio)-3-chlorophenyl)-3-bromo-2-methoxybenzamide] | > 100 µM | – | > 100 µM | – | – | – | – | – | –
